In this assay the test system is MDA-MB-468 breast. In words: growth of human tumour cells (NCI), 48 h.

Among the data in PubChem BioAssay (NCI) are GI50 and TGI values, retold here.

Each structure is given as a SMILES string. Several values for one entry are separate records, joined by “and”; a condition that tells them apart may be missing. Equal entries are not always repeated.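 Test compounds were applied to cells in 96-well plates for 48 hours at 5 doses. GI50 is the concentration that inhibits growth by half. At the TGI there is no net growth.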

On to `COc1cc(/C=C(/c2ccccc2)[N+](=O)[O-])c(OC)c2c1OCO2`, for which the GI50 is 1330 nM and the TGI is 2730 nM.

Regarding `O=C(/C=C/c1ccccc1Cl)Nc1ncc(Cc2cc(Cl)ccc2Cl)s1`, the GI50 was 934 nM and the TGI was 11100 nM.

Regarding `CC1=CC(=O)C(C(C)=Nc2ccccc2Cl)C(=O)O1` (stereo unspecified), the GI50 was > 100000 nM and the TGI was > 100000 nM.

As for `CC1=C[C@H]2O[C@@H]3C[C@H]4OC(=O)/C=C\C=C\[C@H]([C@@H](C)O)OCC[C@@H](C)[C@H](O)C(=O)OC[C@@]2(CC1)[C@]4(C)[C@]31CO1`, the GI50 was 3.71 nM and 1.43 nM; the TGI came to 2.28 nM.

For the molecule `CS(=O)(=O)Nc1cc(-c2ccc3ncnc(Nc4ccc5c(cnn5Cc5ccc(F)cc5)c4)c3c2)cnc1Cl`, the GI50 is 281 nM and the TGI was 1520 nM.

With `Cc1ccc2c(c1)ncn2-c1ncnc2c1CC(C)c1ccccc1N2C` (stereo unspecified), the GI50 is 49.2 nM and the TGI turned out to be 19200 nM.

With `COc1ccc2c(c1)nc(N)c1c3cccnc3cn21`, the GI50 is 294 nM and the TGI was 3450 nM.

With `CCOC(=O)N1CCN(S(=O)(=O)c2oc(-c3ccc(Cl)cc3)nc2C#N)CC1`, the GI50 was 1890 nM and the TGI stood at 4090 nM.

With `C=C(C)CCC(C)N1CCC(N2CCC(C(=O)NCCc3ccccc3)CC2)CC1` (stereo unspecified), the GI50 is 2200 nM and the TGI amounted to 15800 nM.

With `Cn1cc(-c2ccc(CNc3cc(-c4cnc5cc(OCCCN6CCCC6)ccn45)ncn3)cc2)cn1`, the GI50 is 1660 nM and the TGI came out at 3210 nM.

For `COc1cnc2c(c1)C(=O)c1c-2n(CCCN2CCCC2)c(=O)c2cc(Cl)ccc12`, the GI50 was 63.5 nM and the TGI worked out at 2040 nM.

With `CCc1c[nH]c2ncnc(N3CC[C@@](N)(CNC(=O)c4ccc(F)cc4F)C3)c12`, the GI50 was 15000 nM and the TGI is 63700 nM.

Regarding `Nc1nc(Nc2cccc(F)c2)nc2ccccc12`, the GI50 is 13600 nM and the TGI came to 30800 nM.

Take `CCCCCc1c(C)[nH]c(/C=C2\N=C(c3ccc[nH]3)C=C2Oc2ccc(Cl)cc2)c1C`: the GI50 was 24.3 nM and the TGI was determined as 2180 nM.

As to `Clc1ccc2nc(Oc3ccccc3)cnc2c1`, the GI50 is > 100000 nM and the TGI was > 100000 nM.

With `Cc1cc(N2CCCC2)nc(N(CCCNc2ccnc3cc(Cl)ccc23)Cc2ccc3c(c2)OCO3)n1`, the GI50 is 1180 nM and the TGI was determined as 3550 nM.

Consider `COC1CCN(Cc2ccc3c(NNC(=O)c4cnccn4)nc4cc(F)ccc4n23)C1` (stereo unspecified), for which the GI50 is 916 nM and the TGI came out at 4270 nM.

On to `CCN1C(=O)N(CC)C2C1NN=c1s/c(=C3\C(=O)N(C)c4ccccc43)c(=O)n12` (stereo unspecified), for which the GI50 is 354 nM and the TGI amounted to 6010 nM.

As to `CC(C)OC(=O)c1ccc2[nH]c(O)c(C(=Nc3ccc(N(C)C(=O)CN4CCN(C)CC4)cc3)c3ccccc3)c2c1`, the GI50 is 964 nM and the TGI came to 2460 nM.

`COc1ccc(/C=C2\CCCC3=C2NC(C)=NC3c2ccc(OC)c(OC)c2)cc1OC` (stereo unspecified): the GI50 was 1290 nM and the TGI stood at 8180 nM.

With `O=c1oc2ccc(Cl)cc2c(=O)n1-c1ccc(I)cc1F`, the GI50 was 269 nM and the TGI came to 870 nM.

Consider `COc1ccccc1-c1c(C)nn2c(NCc3ccccn3)cc(C)nc12`, for which the GI50 was 1660 nM and the TGI is > 40400 nM.

Consider `COC(=O)[C@@H]1CCCN1C(=O)[C@@H]1CCCN1C(=O)[C@@H](Cc1c[nH]c2ccccc12)NC(=S)Nc1cc(C(F)(F)F)cc(C(F)(F)F)c1`, for which the GI50 is 2050 nM and the TGI was 7020 nM.

As for `C=C[C@]1(C)C=C2C(=O)[C@@]3(O)OC[C@@]4(CCCC(C)(C)C43O)C2(O)C(O)C1` (stereo partly specified), the GI50 was 1290 nM and the TGI is 3160 nM.

For the molecule `Cn1cc(-c2cc(N)n3nc(-c4cn(C)c5ccc(F)cc45)cc3n2)c2cc(F)ccc21`, the GI50 is 1590 nM and the TGI was 3450 nM.

Regarding `Cn1cc(-c2ccc3c(c2)CCN3C(=O)Cc2cccc(C(F)(F)F)c2)c2c(N)ncnc21`, the GI50 is 3710 nM and the TGI came to 29200 nM.

Regarding `Fc1ccc(Nc2nccc(-c3c(-c4ccc(C(F)(F)F)cc4)nn4ncccc34)n2)cc1F`, the GI50 was > 20000 nM and the TGI was > 25000 nM.

Consider `Fc1ccc(Nc2nc(NCCNc3ccnc4cc(Cl)ccc34)nc(N3CCOCC3)n2)cc1`, for which the GI50 was 1960 nM and the TGI was found to be 4830 nM.

Turning to `O=C(NN1C(=O)CSC1c1ccc(Cl)cc1)c1[nH]c2ccc(F)cc2c1-c1ccccc1` (stereo unspecified), the GI50 was 8040 nM and the TGI came to 25100 nM.

For `Oc1cc(Cl)ccc1Oc1ccc(Cl)cc1Cl`, the GI50 is 2420 nM and the TGI was found to be 7240 nM.

Turning to `NCc1ccc(-n2c(-c3nonc3N)nc3cnccc32)cc1`, the GI50 was 2750 nM and the TGI was 11800 nM.

Take `C[C@H](CS(C)(=O)=O)Nc1ncc2cc(Oc3ccc(F)cc3F)c(=O)n(C)c2n1`: the GI50 was > 25000 nM and the TGI is > 25000 nM.

As for `CCCCC[C@H]1C/C=C2/C(=O)C(Cl)=C[C@@H]2C/C=C\CCCC(=O)O[C@@H](CCCCC)C/C=C2/C(=O)C(Cl)=C[C@@H]2C/C=C\CCCC(=O)O1`, the GI50 is 366 nM and the TGI came out at 862 nM.
